Assay results published in US7795291B2, “Substituted acid derivatives useful as anti-atherosclerotic, anti-dyslipidemic, anti-diabetic and anti-obesity agents and method” (Bristol-Myers Squibb Company, priority 2006, dated 2010).

What was measured:
human PPARγ receptor = target: T1, human PPARγ receptor (Homo sapiens, UniProt P37231); test: GAL4-hPPARγ-LBD functional transactivation (luciferase) assay in HEK293 cells; type: cell-based; settings: for Emax: HEK293, maximum activity vs maximal activity of 1 μM rosiglitazone, read-out: PPARγ % efficacy
T1 construct: transiently transfecting GAL4-hPPARα-LBD or GAL4-hPPARγ-LBD constructs; GAL4 (fusion partner); expressed in transfected cells; host or cells: HEK293 cells stably expressing 5×GAL4RE-Luciferase
T1 sequence (P37231 238-503 limits assumed): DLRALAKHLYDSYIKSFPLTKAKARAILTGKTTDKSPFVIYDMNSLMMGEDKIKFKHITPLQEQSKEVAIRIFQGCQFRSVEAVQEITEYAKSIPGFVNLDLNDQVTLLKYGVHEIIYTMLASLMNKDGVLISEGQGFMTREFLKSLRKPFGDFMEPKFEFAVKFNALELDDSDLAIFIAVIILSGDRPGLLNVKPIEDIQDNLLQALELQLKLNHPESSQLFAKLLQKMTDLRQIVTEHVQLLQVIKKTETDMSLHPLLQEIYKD
Protocol: (§1) In vitro PPAR agonist functional assays were performed by transiently transfecting GAL4-hPPARα-LBD or GAL4-hPPARγ-LBD constructs respectively into HEK293 (human embryonic kidney) cells stably expressing 5×GAL4RE-Luciferase. Agonist binding results in an increase in luciferase enzyme activity which can be monitored by measuring luminescence upon cell lysing and the addition of luciferin substrate. EC50 values (μM) for PPARα or γ agonist activity were calculated as the concentration of the test ligand (μM) required for the half-maximal activity in HEK293 cells. The efficacy of a test ligand is defined as its maximum activity as compared to the maximal activity of the primary standards, 100 μM fenofibric acid for PPARα and 1 μM rosiglitazone for PPARγ, reported as % efficacy.

human PPARα receptor = target: T2, human PPARα receptor (Homo sapiens, UniProt Q07869); test: GAL4-hPPARα-LBD functional transactivation (luciferase) assay in HEK293 cells; type: cell-based; settings: for Emax: HEK293, maximum activity vs maximal activity of 100 μM fenofibric acid, read-out: PPARα % efficacy
T2 construct: transiently transfecting GAL4-hPPARα-LBD or GAL4-hPPARγ-LBD constructs; GAL4 (fusion partner); expressed in transfected cells; host or cells: HEK293 cells stably expressing 5×GAL4RE-Luciferase
T2 sequence (Q07869 239-466 limits assumed): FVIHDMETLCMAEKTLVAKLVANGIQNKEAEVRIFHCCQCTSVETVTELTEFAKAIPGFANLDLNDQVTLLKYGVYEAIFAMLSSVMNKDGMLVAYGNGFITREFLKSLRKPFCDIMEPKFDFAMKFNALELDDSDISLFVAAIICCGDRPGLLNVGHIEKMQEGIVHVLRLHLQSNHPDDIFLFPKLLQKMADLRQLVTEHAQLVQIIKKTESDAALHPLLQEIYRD
Protocol: as §1

high fat-fed hamster = test: High fat-fed hamster model: plasma triglyceride and cholesterol levels; type: in vivo, Golden Syrian Hamster (Mesocricetus auratus); settings: 10 mg/kg orally dosed once daily for 14 days; high fat-fed male hamsters, fasted overnight
Protocol: It is known by one skilled in the art that the compounds of the present invention decrease plasma triglycerides and cholesterol levels at doses ≧10 mg/kg in rodent models of atherosclerosis and dyslipidemia (e.g. the high fat-fed hamster model). The typical administration of said compounds is expected to be between 0.1 to 2,000 mg/day in the clinical setting, and is preferably between 0.5 to 100 mg/day. (Reference for high fat-fed hamster model as an in vivo rodent model for anti-atheroslerosis efficacy: P-R Wang et al., Eur. Journ. of Pharm., 2001, 427, 285-293).
Male Golden Syrian Hamster (Mesocricetus auratus), 7-10 weeks of age and weighing 110-120 grams, were put on a high fat diet (D11953) for two weeks. The high fat diet was formulated by Research Diets, Inc, New Brunswick, N.J. using Purina 5001 as the base diet. Final composition (% by weight) of the diet is: 11.5% coconut oil, 11.5% corn oil, 0.5% cholesterol and 5% fructose. […] Plasma samples were obtained from hamsters fasted overnight (18 hours after last administration of compound) on day 22. The plasma triglyceride and cholesterol levels were determined and the percentage reductions in both parameters of drug-treated animals relative to vehicle-treated animals are shown in Table 2 below.

| Emax (human PPARγ receptor) | Emax (human PPARα receptor) | EC50 (human PPARγ receptor; GAL4-hPPARγ-LBD in HEK293 cells, 5×GAL4RE-Luciferase) | EC50 (human PPARα receptor; GAL4-hPPARα-LBD in HEK293 cells, 5×GAL4RE-Luciferase) | SMILES | % Reduction in Plasma Total Cholesterol vs Vehicle-control group (high fat-fed hamster) | % Reduction in Plasma Triglycerides vs Vehicle-control group (high fat-fed hamster) |
| --- | --- | --- | --- | --- | --- | --- |
| 83% | 81% | – | – | COC(=O)N(CC(=O)O)Cc1cccc(OCc2nc(-c3ccc(Cl)cc3)oc2C)c1 [Compound 1, Glycine, N-[[3-[[2-(4-chlorophenyl)-5-methyl-4-oxazolyl]methoxy]phenyl]methyl]-N-(methoxycarbonyl)-] | −38% | −77% |
| 67% | 81% | 4510 ± 1310 nM | 4 ± 1 nM | COC(=O)N(CC(=O)O)Cc1cc(OCc2nc(-c3ccc(Cl)cc3)oc2C)ccc1F [Compound 2] | −60% | −85% |
